Assay results: PubChem BioAssay (NCI)
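How tested: cells in 96-well plates exposed to compound for 48 hours at five concentrations. GI50 marks 50% less growth. TGI denotes the concentration required for complete inhibition of growth.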

Assays:
Test in all cases: NCI-60 cell line screen, 48 h
[1] = tested on: NCI/ADR-RES ovarian
[2] = tested on: A498 renal
[3] = tested on: KM12 colon
[4] = tested on: NCI-H23 lung
[5] = tested on: 786-0 renal
[6] = tested on: MCF7 breast
[7] = tested on: PC-3 prostate
[8] = tested on: MDA-MB-435
[9] = tested on: HL-60(TB) leukemia
[10] = tested on: SF-295 CNS
[11] = tested on: MDA-N
[12] = tested on: NCI-H226 lung
[13] = tested on: ACHN renal
[14] = tested on: M14 melanoma
[15] = tested on: RPMI-8226 leukemia
[16] = tested on: RXF 393 renal
[17] = tested on: NCI-H460 lung
[18] = tested on: CCRF-CEM leukemia
[19] = tested on: K-562 leukemia
[20] = tested on: DU-145 prostate
[21] = tested on: TK-10 renal
[22] = tested on: SK-OV-3 ovarian
[23] = tested on: SNB-19 CNS
[24] = tested on: MDA-MB-231 breast
[25] = tested on: LOX IMVI melanoma
[26] = tested on: SK-MEL-28 melanoma
[27] = tested on: MOLT-4 leukemia
[28] = tested on: OVCAR-8 ovarian
[29] = tested on: NCI-H522 lung
[30] = tested on: UO-31 renal
[31] = tested on: CAKI-1 renal
[32] = tested on: COLO 205 colon
[33] = tested on: UACC-257 melanoma
[34] = tested on: SF-268 CNS
[35] = tested on: HOP-92 NSCLC
[36] = tested on: HT29 colon
[37] = tested on: SF-539 CNS
[38] = tested on: SR leukemia
[39] = tested on: A549 NSCLC
[40] = tested on: HCT-116 colon
[41] = tested on: OVCAR-5 ovarian
[42] = tested on: HOP-62 NSCLC
[43] = tested on: MALME-3M melanoma
[44] = tested on: HCT-15 colon
[45] = tested on: HCC-2998 colon
[46] = tested on: SW-620 colon
[47] = tested on: BT-549 breast
[48] = tested on: EKVX NSCLC
[49] = tested on: HS 578T breast
[50] = tested on: U251 CNS
[51] = tested on: UACC-62 melanoma
[52] = tested on: IGROV1 ovarian
[53] = tested on: OVCAR-4 ovarian
[54] = tested on: SK-MEL-5 melanoma
[55] = tested on: T-47D breast
[56] = tested on: SNB-75 CNS
[57] = tested on: OVCAR-3 ovarian
[58] = tested on: SN12C renal
[59] = tested on: SK-MEL-2 melanoma

Molecule `CC(O)(P(=O)(O)O)P(=O)(O)OCC(O)CN1CCOCC1` (configuration not stated) has a TGI [1] greater than 100 µM, a TGI [2] greater than 100 µM and a TGI [3] greater than 100 µM. It also gave a TGI [4] greater than 100 µM, a TGI [5] greater than 100 µM and a TGI [6] greater than 100 µM. The TGI [7] was greater than 100 µM, the TGI [8] was greater than 100 µM and the TGI [9] was greater than 100 µM. It also gave a TGI [10] greater than 100 µM, a TGI [11] greater than 100 µM and a TGI [12] greater than 100 µM. It also gave a TGI [13] greater than 100 µM, a TGI [14] greater than 100 µM and a TGI [15] greater than 100 µM. It also gave a TGI [16] greater than 100 µM, a TGI [17] greater than 100 µM and a TGI [18] greater than 100 µM. For the same molecule, the TGI [19] was greater than 100 µM, the TGI [20] was greater than 100 µM and the TGI [21] was greater than 100 µM. It also gave a TGI [22] greater than 100 µM, a TGI [23] greater than 100 µM and a TGI [24] greater than 100 µM. It also gave a TGI [25] greater than 100 µM, a TGI [26] greater than 100 µM and a TGI [27] greater than 100 µM. For the same molecule, the TGI [28] was greater than 100 µM, the TGI [29] was greater than 100 µM and the TGI [30] was greater than 100 µM. It also gave a TGI [31] greater than 100 µM, a TGI [32] greater than 100 µM and a TGI [33] greater than 100 µM. The TGI [34] was greater than 100 µM, the TGI [35] was greater than 100 µM and the TGI [36] was greater than 100 µM. The TGI [37] was greater than 100 µM, the TGI [38] was greater than 100 µM and the TGI [39] was greater than 100 µM. It also gave a TGI [40] greater than 100 µM, a TGI [41] greater than 100 µM and a TGI [42] greater than 100 µM. It also gave a TGI [43] greater than 100 µM, a TGI [44] greater than 100 µM and a TGI [45] greater than 100 µM. For the same molecule, the TGI [46] was greater than 100 µM, the TGI [47] was greater than 100 µM and the TGI [48] was greater than 100 µM. The TGI [49] was greater than 100 µM, the TGI [50] was greater than 100 µM and the TGI [51] was greater than 100 µM. It also gave a TGI [52] greater than 100 µM.
With `CN(CCNC(=O)c1cn(C)c2c1ccc1cc(Cl)c(Cl)cc12)CCNC(=O)c1cn(C)c2c1ccc1cc(Cl)c(Cl)cc12` the TGI [53] was 5.67 µM, the TGI [1] was greater than 100 µM and the TGI [2] was 63.2 µM. It also gave a TGI [4] of 22 µM, a TGI [5] of 3.28 µM and a TGI [7] of 3.26 µM. It also gave a TGI [9] of 4.23 µM, a TGI [10] of 6.2 µM and a TGI [11] of 3.25 µM. It also gave a TGI [12] of 96 µM, a TGI [13] of 3.73 µM and a TGI [54] of 35.2 µM. For the same molecule, the TGI [20] was 3.43 µM, the TGI [21] was greater than 100 µM and the TGI [22] was 4.59 µM. For the same molecule, the TGI [24] was 3.25 µM, the TGI [27] was 0.36 µM and the TGI [31] was greater than 100 µM. The TGI [34] was 15.5 µM, the TGI [35] was 12.1 µM and the TGI [36] was 3.41 µM. It also gave a TGI [37] of 16 µM, a TGI [40] of 3.2 µM and a TGI [41] of 9.98 µM. For the same molecule, the TGI [43] was 24.2 µM, the TGI [47] was greater than 75.2 µM and the TGI [48] was 10.9 µM. It also gave a TGI [50] of 3.19 µM and a TGI [51] of 4.88 µM.
In the case of `CCOCCCn1c2c(c3c(O)cccc31)C(=O)c1ccccc1-2`, the GI50 [53] is reported as 21.3 µM, the TGI [53] is reported as 69.3 µM and the GI50 [1] is reported as 20.8 µM. It also gave a TGI [1] of 56.5 µM, a GI50 [2] of 21.7 µM and a TGI [2] of 52.5 µM. It also gave a GI50 [3] of 16.6 µM, a TGI [3] of 39.4 µM and a GI50 [4] of 19.1 µM. For the same molecule, the TGI [4] was 53.2 µM, the GI50 [5] was 22 µM and the TGI [5] was 51.9 µM. It also gave a GI50 [6] of 32.6 µM, a TGI [6] greater than 100 µM and a GI50 [7] of 14.7 µM. It also gave a TGI [7] of 36.7 µM, a GI50 [8] of 18.4 µM and a TGI [8] of 46.5 µM. It also gave a GI50 [55] of 13.9 µM, a TGI [55] of 46.5 µM and a GI50 [9] of 13.2 µM. For the same molecule, the TGI [9] was 31.4 µM, the GI50 [10] was 21.4 µM and the TGI [10] was 55.3 µM. For the same molecule, the GI50 [12] was 24.1 µM, the TGI [12] was 81.6 µM and the GI50 [13] was 20.6 µM. The TGI [13] was 55 µM, the GI50 [14] was 16.2 µM and the TGI [14] was 31.5 µM. The GI50 [15] was 16.4 µM, the TGI [15] was 43.9 µM and the GI50 [16] was 30.3 µM. It also gave a TGI [16] of 82.1 µM, a GI50 [17] of 21.6 µM and a TGI [17] of 63.9 µM. For the same molecule, the GI50 [54] was 15.8 µM, the TGI [54] was 29.8 µM and the GI50 [18] was 25.1 µM. It also gave a TGI [18] of 88.6 µM, a GI50 [19] of 18.6 µM and a TGI [19] of 55.7 µM. The GI50 [20] was 33.3 µM, the TGI [20] was greater than 100 µM and the GI50 [21] was 23.4 µM. It also gave a TGI [21] of 76.2 µM, a GI50 [22] of 24.8 µM and a TGI [22] of 72.4 µM. It also gave a GI50 [23] of 26.7 µM, a TGI [23] greater than 100 µM and a GI50 [24] of 12.8 µM. It also gave a TGI [24] of 35.3 µM, a GI50 [25] of 17.2 µM and a TGI [25] of 32.7 µM. It also gave a GI50 [26] of 22.5 µM, a TGI [26] of 46.3 µM and a GI50 [27] of 13.7 µM. For the same molecule, the TGI [27] was 32.7 µM, the GI50 [28] was 31.1 µM and the TGI [28] was greater than 100 µM. The GI50 [29] was 14 µM, the TGI [29] was 35.7 µM and the GI50 [30] was 15.9 µM. It also gave a TGI [30] of 38.4 µM, a GI50 [56] of 20.5 µM and a TGI [56] of 50.3 µM. The GI50 [31] was 21.6 µM, the TGI [31] was 64.1 µM and the GI50 [32] was 16 µM. It also gave a TGI [32] of 33.3 µM, a GI50 [33] of 27.8 µM and a TGI [33] of 68.6 µM. It also gave a GI50 [34] of 18.1 µM, a TGI [34] of 50.3 µM and a GI50 [35] of 16.8 µM. The TGI [35] was 43.3 µM, the GI50 [36] was 30.2 µM and the TGI [36] was greater than 100 µM. For the same molecule, the GI50 [37] was 24.7 µM, the TGI [37] was 63.3 µM and the GI50 [38] was 10.6 µM. For the same molecule, the TGI [38] was 27.7 µM, the GI50 [39] was 29.2 µM and the TGI [39] was greater than 100 µM. For the same molecule, the GI50 [57] was 21.9 µM, the TGI [57] was 55.3 µM and the GI50 [40] was 16.6 µM. It also gave a TGI [40] of 33.5 µM, a GI50 [41] of 17.8 µM and a TGI [41] of 39.9 µM. For the same molecule, the GI50 [58] was 11.5 µM, the TGI [58] was 25.5 µM and the GI50 [42] was 17.8 µM. For the same molecule, the TGI [42] was 48 µM, the GI50 [43] was 14.7 µM and the TGI [43] was 37.1 µM. It also gave a GI50 [44] of 26.8 µM, a TGI [44] of 65.6 µM and a GI50 [59] of 20.3 µM. For the same molecule, the TGI [59] was 38.5 µM, the GI50 [45] was 22.1 µM and the TGI [45] was 64.3 µM. The GI50 [46] was 28.4 µM, the TGI [46] was greater than 100 µM and the GI50 [47] was 29 µM. For the same molecule, the TGI [47] was 87.8 µM, the GI50 [48] was 24.3 µM and the TGI [48] was 79 µM. For the same molecule, the GI50 [49] was 32.8 µM, the TGI [49] was 82.3 µM and the GI50 [50] was 23.7 µM. The TGI [50] was 62.5 µM, the GI50 [51] was 14.5 µM and the TGI [51] was 30.1 µM. For the same molecule, the GI50 [52] was 17.1 µM and the TGI [52] was 48.7 µM.
